Measurements as given in patent US6911416B2, “Substituted N-benzoyl-n′(tetrazolylphenyl)-ureas and their use as pest control agents” (priority 2000, dated 2005).

System: Heliothis virescens
Test: Heliothis virescens test (dipped soya shoots)
Format: in vivo
Conditions: active compound concentration 0.1%, after 6 days, soya shoots (Glycine max)
Description: (§1) To produce a suitable active compound preparation, 1 part by weight of active compound is mixed with the stated amounts of solvent and emulsifier, and the concentrate is diluted with emulsifier-containing water to the desired concentration.
Soya shoots (Glycine max) are treated by dipping into the active compound preparation of the desired concentration and are populated with Heliothis virescens while the leaves are still moist.
(§2) After the desired period, the destruction is determined in %. 100% means that all the caterpillars have been killed; 0% means that none of the caterpillars have been killed.

Compound	destruction
CC(C)(C)n1nnc(-c2ccc(NC(=O)NC(=O)c3c(F)cccc3F)c(Cl)c2)n1 [Example 4]	100%

System: fall armyworm (Spodoptera exigua) caterpillars
Test: Spodoptera exigua test (dipped cabbage leaves)
Format: in vivo
Conditions: active compound concentration 0.1%, after 6 days, cabbage leaves (Brassica oleracea)
Description: as §1
Cabbage leaves (Brassica oleracea) are treated by dipping into the active compound preparation of the desired concentration and are populated with fall armyworm (Spodoptera exigua) caterpillars while the leaves are still moist.
as §2

Compound	destruction
CC(C)(C)n1nnc(-c2ccc(NC(=O)NC(=O)c3c(F)cccc3F)c(Cl)c2)n1 [Example 4]	100%

System: diamond-back moth (Plutella xylostella) caterpillars
Test: Plutella test (dipped cabbage leaves)
Format: in vivo
Conditions: active compound concentration 0.1%, after 6 days, cabbage leaves (Brassica oleracea)
Description: as §1
Cabbage leaves (Brassica oleracea) are treated by dipping into the active compound preparation of the desired concentration and are populated with diamond-back moth (Plutella xylostella) caterpillars while the leaves are still moist.
as §2

Compound	destruction
CC(C)(C)n1nnc(-c2ccc(NC(=O)NC(=O)c3c(F)cccc3F)c(Cl)c2)n1 [Example 4]	100%

System: fall armyworm (Spodoptera frugiperda) caterpillars
Test: Spodoptera frugiperda test (dipped cabbage leaves)
Format: in vivo
Conditions: active compound concentration 0.1%, after 7 days, cabbage leaves (Brassica oleracea)
Description: Spodoptera frugiperda Test
as §1
Cabbage leaves (Brassica oleracea) are treated by dipping into the active compound preparation of the desired concentration and are populated with fall armyworm (Spodoptera frugiperda) caterpillars while the leaves are still moist.
as §2

Compound	destruction
CC(C)(C)n1nnc(-c2ccc(NC(=O)NC(=O)c3c(F)cccc3F)c(Cl)c2)n1 [Example 4]	100%
Cn1nnc(-c2ccc(NC(=O)NC(=O)c3c(F)cccc3F)c(Cl)c2)n1 [Example 5]	100%
CC(C)(C)n1nnc(-c2ccc(NC(=O)NC(=O)c3c(F)cccc3Cl)c(Cl)c2)n1 [Example 10]	100%
CCOCn1nnc(-c2ccc(NC(=O)NC(=O)c3c(F)cccc3F)c(Cl)c2)n1 [Example 14]	100%
CCCn1nnc(-c2ccc(NC(=O)NC(=O)c3c(F)cccc3F)c(Cl)c2)n1 [Example 15]	100%
CC(C)(C)n1nnc(-c2cc(Cl)c(NC(=O)NC(=O)c3c(F)cccc3F)cc2Cl)n1 [Example 16]	100%
O=C(NC(=O)c1c(F)cccc1F)Nc1ccc(-c2nnn(C(F)F)n2)cc1Cl [Example 18]	100%
O=C(NC(=O)c1c(F)cccc1F)Nc1ccc(-c2nnnn2C(F)F)cc1Cl [Example 20]	100%

System: not listed separately
Test: logP (pH2) determination by HPLC, EEC directive 79/831 Annex V. A8
Format: physicochemical
Conditions: pH 2

Compound	logP (pH2) or m.p. (° C.)	log P(pH2)
O=C(NC(=O)c1c(F)cccc1F)Nc1ccc(-c2nnn(-c3ccccc3)n2)cc1Cl [Example 19]	4.63	
N-(2,6-difluorobenzoyl)-N′-[2-chloro-4-(1-methyl-tetrazol-5-yl]-urea [Example 3]		2.31

Same assay, conditions: pH2; Table 1, compounds of formula (I); only decimal values are logP

Compound	logP (pH2)
Cn1nnc(-c2ccc(NC(=O)NC(=O)c3c(F)cccc3F)c(Cl)c2)n1 [Example 5]	2.88
O=C(NC(=O)c1c(F)cccc1F)Nc1ccc(Cl)cc1-c1nn[nH]n1 [Example 6]	2.16
O=C(NC(=O)c1c(F)cccc1F)Nc1cc(Cl)c(-c2nn[nH]n2)cc1Cl [Example 7]	2.30
CC(C)(C)n1nnc(-c2cc(Cl)ccc2NC(=O)NC(=O)c2c(F)cccc2F)n1 [Example 11]	4.20
CC(C)(C)n1nnc(-c2ccc(NC(=O)NC(=O)c3c(F)cccc3F)cc2Cl)n1 [Example 35]	3.68

Same assay, conditions: pH2; Table 2, tetrazolylanilines of formula (III)

Compound	logP (pH2)
Cc1cc(-c2nn[nH]n2)cc(Cl)c1N [III-5]	1.20
Cn1nnc(-c2ccc(N)c(Cl)c2)n1 [III-6]	1.70
Nc1ccc(Cl)cc1-c1nn[nH]n1 [III-7]	1.50
Nc1cc(Cl)c(-c2nn[nH]n2)cc1Cl [III-8]	1.16
Nc1ccc(-c2nn[nH]n2)c(Cl)c1 [III-9]	1.53
COC(=O)Cn1nnc(-c2ccc(N)c(Cl)c2)n1 [III-10]	1.92
CCOCn1nnc(-c2ccc(N)c(Cl)c2)n1 [III-11]	2.34
CCCn1nnc(-c2ccc(N)c(Cl)c2)n1 [III-12]	2.52
Nc1ccc(-c2nnn(C(F)F)n2)cc1Cl [III-14]	2.08
Nc1ccc(-c2nnn(-c3ccccc3)n2)cc1Cl [III-15]	3.28
Nc1ccc(-c2nnnn2C(F)F)cc1Cl [III-16]	1.92
CC(C)Cn1nnc(-c2ccc(N)c(Cl)c2)n1 [III-17]	2.95
Nc1ccc(-c2nnn(CCC(F)=C(F)F)n2)cc1Cl [III-18]	2.68
CC(C)(C)n1nnc(-c2cc(Cl)c(N)c(Cl)c2)n1 [III-19]	3.81
CC(C)Cn1nnc(-c2cc(Cl)c(N)c(Cl)c2)n1 [III-20]	3.78
CC(C)Cn1nnc(-c2cc(Cl)c(N)cc2Cl)n1 [III-21]	3.15
CCCn1nnc(-c2cc(Cl)c(N)cc2Cl)n1 [III-22]	2.75
CC(C)(C)n1nnc(-c2ccc(N)cc2)n1 [III-23]	1.69
CC(=O)OCCn1nnc(-c2ccc(N)c(Cl)c2)n1 [III-24]	1.92
Nc1c(Cl)cc(-c2nn[nH]n2)cc1Cl [III-25]	1.40
CC(C)(C)n1nnc(-c2ccc(N)c(Cl)c2)n1 [III-26]	2.94
Nc1cc(Cl)c(-c2nnn(C(F)F)n2)cc1Cl [III-28]	2.69
Nc1cc(Cl)c(-c2nnnn2C(F)F)cc1Cl [III-29]	2.36
CC(C)(C)n1nnc(-c2ccc(N)cc2Cl)n1 [III-31]	2.42
CC(C)(C)n1nnc(-c2ccc(N)cc2F)n1 [III-32]	2.14
Nc1ccc(-c2nnn(C(F)F)n2)cc1 [III-46]	1.49
Nc1ccc(-c2nnnn2C(F)F)cc1 [III-47]	1.24
Nc1ccc(-c2nnn(C(F)F)n2)c(Cl)c1 [III-48]	2.09
Nc1ccc(-c2nnnn2C(F)F)c(Cl)c1 [III-49]	1.81
Nc1ccc(-c2nnn(C(F)F)n2)c(F)c1 [III-50]	1.84

Same assay, conditions: pH 2; pH2; HPLC gradient acetonitrile/0.1% aqueous phosphoric acid; values in preparation examples; read-out: log P(pH2)

Compound	chromatographic logP
Cn1nnnc1-c1ccc(N)c(Cl)c1 [1-methyl-(3-chloro-4-aminophenyl)-tetrazole]	1.17
Nc1ccc(-c2nn[nH]n2)cc1Cl [5-(3-chloro-4-aminophenyl)-tetrazole]	1
O=C(NC(=O)c1c(F)cccc1F)Nc1ccc(-c2nn[nH]n2)cc1Cl [Example 1, N-(2,6-difluorobenzoyl)-N′-(2-chloro-4-tetrazol-5-yl-phenyl)-urea]	2.13
O=C(NC(=O)c1c(F)cccc1F)Nc1ccc(-c2nnn(C3CCCCO3)n2)cc1Cl (centres unmarked) [Example 2, N-(2,6-difluorobenzoyl)-N′-[2-chloro-4-(2-tetrahydropyran-2-yl-tetrazol-5-yl)-phenyl]-urea]	3.72
CC(C)(C)n1nnc(-c2cc(Cl)ccc2N)n1 [Example a, 5-(2-amino-5-chlorophenyl)-2-tert-butyl-tetrazole]	3.58
Nc1ccc(-c2nnn(Cc3ccc(Br)cc3)n2)cc1Cl [Example b, 5-(3-chloro-4-aminophenyl)-2-(4-bromobenzyl)-tetrazole]	3.52

System: mustard beetle (Phaedon cochleariae) larvae
Test: Phaedon larvae test (dipped cabbage leaves)
Format: in vivo
Conditions: active compound concentration 0.1%, after 7 days, cabbage leaves (Brassica oleracea)
Description: as §1
Cabbage leaves (Brassica oleracea) are treated by dipping into the active compound preparation of the desired concentration and are populated with mustard beetle (Phaedon cochleariae) larvae while the leaves are still moist.
After the desired period, the destruction is determined in %. 100% means that all the beetle have been killed; 0% means that none of the beetle larvae have been killed.

Compound	destruction
CC(C)(C)n1nnc(-c2ccc(NC(=O)NC(=O)c3c(F)cccc3F)c(Cl)c2)n1 [Example 4]	100%
CC(C)(C)n1nnc(-c2ccc(NC(=O)NC(=O)c3c(F)cccc3Cl)c(Cl)c2)n1 [Example 10]	100%
CC(C)(C)n1nnc(-c2cc(Cl)c(NC(=O)NC(=O)c3c(F)cccc3F)cc2Cl)n1 [Example 16]	100%
O=C(NC(=O)c1c(F)cccc1F)Nc1ccc(-c2nnn(C(F)F)n2)cc1Cl [Example 18]	100%
O=C(NC(=O)c1c(F)cccc1F)Nc1ccc(-c2nnnn2C(F)F)cc1Cl [Example 20]	100%
